PubChem BioAssay AID248 (DTP/NCI, 2004)
Several values for one entry are separate records, joined by “and”; a condition that tells them apart may be missing. Equal entries are not always repeated. Toxic doses and inconclusive results are not listed. No stated cut-off is given here; in the data, active means T/C of 150% or more; inactive means T/C below 125%.

Test system: L1210 leukemia ip in BDF1 mice, survival T/C
Assay: NCI In Vivo Anticancer Drug Screen. Data for tumor model L1210 Leukemia (intraperitoneal) in B6D2F1 (BDF1) mice
Conditions: endpoint: mean survival time, higher = longer survival
In short: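 Ratio derived from survival: compound-dosed mice over vehicle-dosed mice, all bearing a transplantable tumor.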

[1] = dose: 50.0 mg/kg/injection, schedule: Q04DX003 (ip), vehicle: Klucel (hydroxypropylcellulose) (HPC)
[2] = dose: 100.0 mg/kg/injection, schedule: Q01DX001 (ip), vehicle: Klucel (hydroxypropylcellulose) (HPC)
[3] = dose: 100.0 mg/kg/injection, schedule: Q04DX003 (ip), vehicle: Klucel (hydroxypropylcellulose) (HPC)
[4] = dose: 200.0 mg/kg/injection, schedule: Q01DX001 (ip), vehicle: Klucel (hydroxypropylcellulose) (HPC)
[5] = dose: 200.0 mg/kg/injection, schedule: Q04DX003 (ip), vehicle: Klucel (hydroxypropylcellulose) (HPC)
[6] = dose: 400.0 mg/kg/injection, schedule: Q01DX001 (ip), vehicle: Klucel (hydroxypropylcellulose) (HPC)
[7] = dose: 100.0 mg/kg/injection, schedule: Q01DX009 (ip), vehicle: Klucel (hydroxypropylcellulose) (HPC)
[8] = dose: 200.0 mg/kg/injection, schedule: Q01DX009 (ip), vehicle: Klucel (hydroxypropylcellulose) (HPC)
[9] = dose: 75.0 mg/kg/injection, schedule: Q01DX001 (ip), vehicle: other
[10] = dose: 100.0 mg/kg/injection, schedule: Q04DX003 (ip), vehicle: saline with Tween-80
[11] = dose: 200.0 mg/kg/injection, schedule: Q04DX003 (ip), vehicle: saline with Tween-80
[12] = dose: 400.0 mg/kg/injection, schedule: Q04DX003 (ip), vehicle: saline with Tween-80
[13] = dose: 50.0 mg/kg/injection, schedule: Q01DX009 (ip), vehicle: saline with Tween-80
[14] = dose: 100.0 mg/kg/injection, schedule: Q01DX009 (ip), vehicle: saline with Tween-80
[15] = dose: 200.0 mg/kg/injection, schedule: Q01DX009 (ip), vehicle: saline with Tween-80
[16] = dose: 400.0 mg/kg/injection, schedule: Q01DX009 (ip), vehicle: saline with Tween-80
[17] = dose: 100.0 mg/kg/injection, schedule: Q01DX009 (ip), vehicle: saline
[18] = dose: 100.0 mg/kg/injection, schedule: Q04DX003 (ip), vehicle: saline
[19] = dose: 200.0 mg/kg/injection, schedule: Q01DX009 (ip), vehicle: saline
[20] = dose: 200.0 mg/kg/injection, schedule: Q04DX003 (ip), vehicle: saline
[21] = dose: 400.0 mg/kg/injection, schedule: Q01DX009 (ip), vehicle: saline
[22] = dose: 400.0 mg/kg/injection, schedule: Q04DX003 (ip), vehicle: saline
[23] = dose: 50.0 mg/kg/injection, schedule: Q01DX001 (ip), vehicle: Klucel (hydroxypropylcellulose) (HPC)
[24] = dose: 25.0 mg/kg/injection, schedule: Q01DX009 (ip), vehicle: saline with Tween-80
[25] = dose: 50.0 mg/kg/injection, schedule: Q01DX001 (ip), vehicle: carboxymethylcellulose (CMC)
[26] = dose: 100.0 mg/kg/injection, schedule: Q01DX001 (ip), vehicle: carboxymethylcellulose (CMC)
[27] = dose: 200.0 mg/kg/injection, schedule: Q01DX001 (ip), vehicle: carboxymethylcellulose (CMC)
[28] = dose: 400.0 mg/kg/injection, schedule: Q01DX001 (ip), vehicle: carboxymethylcellulose (CMC)
[29] = dose: 400.0 mg/kg/injection, schedule: Q01DX009 (ip), vehicle: Klucel (hydroxypropylcellulose) (HPC)
[30] = dose: 400.0 mg/kg/injection, schedule: Q04DX003 (ip), vehicle: Klucel (hydroxypropylcellulose) (HPC)
[31] = dose: 50.0 mg/kg/injection, schedule: Q01DX001 (ip), vehicle: saline
[32] = dose: 100.0 mg/kg/injection, schedule: Q01DX001 (ip), vehicle: saline
[33] = dose: 200.0 mg/kg/injection, schedule: Q01DX001 (ip), vehicle: saline
[34] = dose: 400.0 mg/kg/injection, schedule: Q01DX001 (ip), vehicle: saline

Measured: T/C

COC(=O)C1C2C=CC(C2=C(C)C)C1C(=O)OC (configuration not stated)
inactive: [1] 100 % of control | [2] 92 % of control | [3] 98 % of control | [4] 96 % of control | [5] 94 % of control | [6] 91 % of control

O=C(O)CCSSCCC(=O)O
inactive: [1] 103 % of control | [7] 95 % of control | [3] 86 % of control | [8] 87 % of control | [5] 86 % of control

O=[N+]([O-])c1cc(/C=N/N=C2c3ccccc3-c3ccccc32)ccc1Cl
inactive: [9] 86 % of control | dose: 300.0 mg/kg/injection, schedule: Q01DX001 (ip), vehicle: other 91 % of control

O=C1OC(=O)C2(Br)C3C=CC(C3)C12Br (configuration not stated)
inactive: [10] 98 % of control | [11] 96 % of control | [12] 91 % of control

CCCCCCCCCCC(CCCCCCCCCC)CC1CCCC1
inactive: dose: 75.0 mg/kg/injection, schedule: Q01DX001 (ip), vehicle: saline with Tween-80 100 % of control | dose: 150.0 mg/kg/injection, schedule: Q01DX001 (ip), vehicle: saline with Tween-80 103 % of control | dose: 300.0 mg/kg/injection, schedule: Q01DX001 (ip), vehicle: saline with Tween-80 97 % of control

CCOC(=O)C(CC)c1nc2ccccc2o1 (configuration not stated)
inactive: [13] 109 % of control | [14] 100 % of control | [15] 95 % of control | [16] 94 % of control

CSCCCN
inactive: [17] 99 % of control | [18] 102 % of control | [19] 95 % of control | [20] 104 % of control | [21] 95 % of control | [22] 96 % of control

Nc1cccc(-c2nc3[nH]ncc3c(=O)[nH]2)c1
inactive: dose: 25.0 mg/kg/injection, schedule: Q01DX001 (ip), vehicle: Klucel (hydroxypropylcellulose) (HPC) 100 % of control | [23] 98 % of control | [2] 93 % of control

CCOC(=O)NCC(C)(CCN1CCCC1)c1cccc2ccccc12 (configuration not stated)
inactive: dose: 12.5 mg/kg/injection, schedule: Q01DX009 (ip), vehicle: saline with Tween-80 93 % of control | dose: 12.5 mg/kg/injection, schedule: Q04DX003 (ip), vehicle: Klucel (hydroxypropylcellulose) (HPC) 100 % of control | [24] 88 % of control | dose: 25.0 mg/kg/injection, schedule: Q04DX003 (ip), vehicle: Klucel (hydroxypropylcellulose) (HPC) 100 % of control | [1] 100 % of control

O=C1C=C(c2c(O)ccc3ccccc23)c2ccccc2C1=O
inactive: [25] 96 % of control | [26] 100 % of control | [27] 96 % of control | [28] 110 % of control

Cc1ccc([N+](=O)[O-])cc1NC(=O)N(C)Cc1ccc(Cl)cc1
inactive: [2] 90 % of control | [7] 89 % of control and 90 % of control | [3] 102 % of control | [4] 98 % of control | [8] 94 % of control and 97 % of control | [5] 98 % of control | [6] 93 % of control | [29] 93 % of control and 90 % of control | [30] 100 % of control and 122 % of control

O=c1c(N=Nc2ccc(Cl)cc2)c(O)n(-c2ccc(Cl)cc2)c(=S)n1-c1ccccc1
inactive: [23] 108 % of control | [2] 94 % of control | [4] 100 % of control

CC(=O)c1cccc(NC(=O)Nc2ccc(S(N)(=O)=O)cc2)c1
inactive: [14] 105 % of control | [15] 97 % of control

Cc1c2c(nn1Cc1ccccc1)C(=O)C=C(Nc1ccccc1)C2=O
inactive: [23] 99 % of control | [2] 99 % of control and 104 % of control | [4] 97 % of control and 111 % of control

O=C(CCCC(=O)N/N=C/C=C/c1ccccc1)N/N=C/C=C\c1ccccc1
inactive: [31] 87 % of control | [32] 110 % of control | [33] 93 % of control | [34] 97 % of control

CO/N=C1/C=C(C)C(=O)C(C)=C1C
inactive: [31] 94 % of control | [32] 97 % of control | [7] 102 % of control | [3] 97 % of control | [33] 105 % of control | [8] 98 % of control | [5] 92 % of control | [34] 94 % of control | [29] 95 % of control | [30] 101 % of control

O=C1c2ccccc2-c2cccc([N+](=O)[O-])c21
inactive: [26] 97 % of control | [27] 92 % of control | [28] 97 % of control

Cc1cc(Cl)c(Cl)cc1NC(=O)c1ccc(Cl)c(Cl)c1
inactive: [14] 94 % of control and 101 % of control | [15] 101 % of control | [16] 102 % of control and 104 % of control

Cc1cccc(OCCOC(=O)Nc2cccc(C(F)(F)F)c2)c1
inactive: [32] 104 % of control | [17] 100 % of control and 87 % of control | dose: 100.0 mg/kg/injection, schedule: Q04DX002 (ip), vehicle: saline 100 % of control and 101 % of control | [18] 101 % of control | [33] 106 % of control | [19] 92 % of control and 87 % of control | dose: 200.0 mg/kg/injection, schedule: Q04DX002 (ip), vehicle: saline 100 % of control and 105 % of control | [20] 106 % of control | [34] 109 % of control | [21] 94 % of control | dose: 400.0 mg/kg/injection, schedule: Q04DX002 (ip), vehicle: saline 92 % of control and 97 % of control | [22] 103 % of control

CC1OC(c2ccccc2)OC2COC(c3ccccc3)OC12 (configuration not stated)
inactive: [10] 102 % of control | [11] 96 % of control | [12] 96 % of control

O=[N+]([O-])c1ccc2nc[nH]c2c1
inactive: [24] 89 % of control | [13] 96 % of control

CCCCOB(OCCCC)C(C)C(C#N)C#N (configuration not stated)
inactive: dose: 100.0 mg/kg/injection, schedule: Q01DX009 (ip), vehicle: saline sonified 94 % of control | [10] 110 % of control | dose: 200.0 mg/kg/injection, schedule: Q01DX009 (ip), vehicle: saline sonified 92 % of control | [11] 98 % of control | dose: 400.0 mg/kg/injection, schedule: Q01DX009 (ip), vehicle: saline sonified 89 % of control | [12] 93 % of control

BrC12CC3CC(C1)CC(Br)(C3)C2
inactive: [25] 96 % of control | [26] 93 % of control | [27] 93 % of control | [28] 102 % of control

Cc1nnc2nc3c(nn12)c1ccccc1n3C
inactive: dose: 6.25 mg/kg/injection, schedule: Q04DX002 (ip), vehicle: saline 100 % of control | dose: 12.5 mg/kg/injection, schedule: Q04DX002 (ip), vehicle: saline 103 % of control | dose: 25.0 mg/kg/injection, schedule: Q04DX002 (ip), vehicle: saline 96 % of control

ClCCOCCOCCOCCCl
inactive: dose: 75.0 mg/kg/injection, schedule: Q01DX009 (ip), vehicle: saline with Tween-80 97 % of control | [10] 97 % of control | dose: 150.0 mg/kg/injection, schedule: Q01DX009 (ip), vehicle: saline with Tween-80 93 % of control | [11] 106 % of control | dose: 300.0 mg/kg/injection, schedule: Q01DX009 (ip), vehicle: saline with Tween-80 93 % of control | [12] 102 % of control

C=CCONC(=O)Oc1ccccc1
inactive: [9] 106 % of control | dose: 150.0 mg/kg/injection, schedule: Q01DX001 (ip), vehicle: other 97 % of control

Cc1ccc(NC(=O)c2ccccc2)cc1Cl
inactive: [7] 98 % of control | [3] 106 % of control | [8] 95 % of control | [5] 101 % of control | [29] 96 % of control | [30] 97 % of control

CC1(C)C2CC3C(=CCC4C(=O)OC(=O)C43)C1C2 (configuration not stated)
inactive: [7] 104 % of control | [3] 101 % of control | [8] 100 % of control | [5] 100 % of control | [30] 100 % of control
